Assay results as given in US10562935B2, “Stapled peptides and uses thereof” (London Health Sciences Centre Research Inc., priority 2015, dated 2020).
Bridges are numbered along the chain shown (N, C = ends).

Columns and labels:
[1] = tested on: RHAMM-overexpressing (LR21) cells; assay: Cell invasion assay (Boyden chamber with MATRIGEL, Chemicon ECM555); assay type: cell-based; conditions: for Invasion (% inhib.): % inhibition relative to positive control, 10 ng/mL of peptide; for inhibition of cellular invasion (in words): 10 ng/mL peptide, 20 hours, compared to 30% serum control
How it was run: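 Serum-starved RHAMM-overexpressing LR21 cells (7.5×10^4) placed in upper Boyden chamber over MATRIGEL-coated filter, with or without 10 ng/mL peptide; 30% FBS/DMEM chemoattractant below. Invaded cells quantified after 20 h by CyQUANT GR fluorescence (480/520 nm); mean ± SD, n=3, versus 30% serum control.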

[2] = tested on: RHAMM-overexpressing (LR21) cells; assay: Cell migration assay (Boyden chamber, Chemicon ECM510); assay type: cell-based; conditions: for inhibition of cell migration (in words): 10 ng/mL peptide, 20 hours, compared to 30% serum control; for Migration (% inhib.): % inhibition relative to positive control
How it was run: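 Serum-starved LR21 cells (7.5×10^4) placed in the upper Boyden chamber with or without 10 ng/mL peptide, with 30% FBS in DMEM as lower-chamber chemoattractant. Cells crossing the membrane after 20 h quantified by CyQUANT GR fluorescence (480/520 nm); mean of n=3, compared with 30% serum control.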

NF-κB = assay: Inflammation assay: NF-κB inducible SEAP reporter in RAW-Blue macrophages stimulated with PAM3CSK4; assay type: cell-based, murine; conditions: for inhibition of inflammation (SEAP / NF-κB activity, in words): 10 ng/mL peptide with 200 ng/mL PAM3CSK4, 18 hours, compared to +PAM3; for Inflammation (% Inhib.): % inhibition relative to positive control
How it was run: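 RAW-Blue murine RAW 264.7 macrophages carrying an NF-κB-inducible SEAP reporter were stimulated with 200 ng/mL PAM3CSK4 and given peptide at 10 ng/mL. After 18 h, supernatant SEAP was developed with QUANTI-BLUE for 20 min at 37 °C and read by absorbance at 630 nm. Values are mean and SDM of n=3.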

[3] = Direct HA-binding ELISA of biotinylated peptides on HA coated plates (Example 4); design: key to HA binding: absorbance (color) read at 450 nm; conditions: for HA binding: as repeated in tables 16, 18, 20; for HA direct binding (OD): optical density, summary tables 15, 17, 19
How it was run: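 N-terminally biotinylated peptides (AEEA spacer) added to HA-coated wells at 0.8 or 0.08 μM, n=3, overnight at 4° C with shaking; biotin-labeled 7 kDa RHAMM as positive control. Bound peptide detected with streptavidin-HRP (1 hr, room temperature) and TMB substrate (5-10 min), absorbance at 450 nm.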

Row | HA binding [3] | HA direct binding (OD) [3] | Substance | Invasion (% inhib.) [1] | inhibition of cell migration (in words) [2] | Migration (% inhib.) [2] | inhibition of inflammation (SEAP / NF-κB activity, in words) (NF-κB) | Inflammation (% Inhib.) (NF-κB) | inhibition of cellular invasion (in words) [1]
1 | 0.12 | 0.12 OD | Ac-(cyclo-28-32)-NLKQKIKHVVKLKDENSQLKSEVSKLR[EQLVK]RKQN-NH2 (Ac-NLKQKIKHVVKLKDENSQLKSEVSKLREQLVKRKQN-NH2; lactam 28-32; SMILES CC[C@H](C)[C@H](NC(=O)[C@H](CCCCN)NC(=O)[C@H](CCC(N)=O)NC(=O)[C@H](CCCCN)NC(=O)[C@H](CC(C)C)NC(=O)[C@H](CC(N)=O)NC(C)=O)C(=O)N[C@@H](CCCCN)C(=O)N[C@@H](Cc1c[nH]cn1)C(=O)N[C@H](C(=O)N[C@H](C(=O)N[C@@H](CCCCN)C(=O)N[C@@H](CC(C)C)C(=O)N[C@@H](CCCCN)C(=O)N[C@@H](CC(=O)O)C(=O)N[C@@H](CCC(=O)O)C(=O)N[C@@H](CC(N)=O)C(=O)N[C@@H](CO)C(=O)N[C@@H](CCC(N)=O)C(=O)N[C@@H](CC(C)C)C(=O)N[C@@H](CCCCN)C(=O)N[C@@H](CO)C(=O)N[C@@H](CCC(=O)O)C(=O)N[C@H](C(=O)N[C@@H](CO)C(=O)N[C@@H](CCCCN)C(=O)N[C@@H](CC(C)C)C(=O)N[C@@H](CCCNC(=N)N)C(=O)N[C@H]1CCC(=O)NCCCC[C@@H](C(=O)N[C@@H](CCCNC(=N)N)C(=O)N[C@@H](CCCCN)C(=O)N[C@@H](CCC(N)=O)C(=O)N[C@@H](CC(N)=O)C(N)=O)NC(=O)[C@H](C(C)C)NC(=O)[C@H](CC(C)C)NC(=O)[C@H](CCC(N)=O)NC1=O)C(C)C)C(C)C)C(C)C) [Compound 277] | 0 % inhib. | significantly inhibit cell migration | 63 % inhib. | significantly inhibited inflammation | 8 % Inhib. | 
2 | 0.10 | 0.10 OD | Ac-KIKHVVKLKDENSQLKSEVSKLRSQLVKRK-NH2 [Compound 265] | 46 % inhib. | significantly inhibit cell migration | 63 % inhib. | significantly inhibited inflammation | 18 % Inhib. | significantly inhibited cellular invasion
3 | 0.11 | 0.11 OD | Ac-NLKQKIKHVVKLKDENSQLKSEVSKLRSQLVKRKQN-NH2 [Compound 275] | 0 % inhib. | significantly inhibit cell migration | 60 % inhib. |  | 0 % Inhib. | 
4 | 0.03 | 0.03 OD | Ac-VSKLRSQLVKRKQN-NH2 [Compound 132] | 66 % inhib. | significantly inhibit cell migration | 36 % inhib. |  | 0 % Inhib. | significantly inhibited cellular invasion
